Results taken from US20090176817A1, “Method of Treatment of Diarrhea-Predominant Irritable Bowel Syndrome in a Subject” (priority 2005, published 2009).

Tests used:
clinical [1] = details: both, human, in vivo
Method: Diurnal variations in cilansetron pharmacokinetics have been evaluated in a randomized, double-blind, placebo-controlled, 2-way crossover study in 9 male and 9 female healthy subjects, aged 21 to 39 years. Subjects were randomized to receive 2 treatments (cilansetron 16 mg tablet and placebo) during the 2 treatment periods. During each treatment period, subjects received a single dose of their assigned treatment on the first day (Day 1), after which they received the same treatment TID for 4 days (Days 2-5). There was a 10-day washout period between treatment periods. Subjects were fasted for at least 2 hours before and following each dose, and heavy physical activity was restricted. Serial blood samples for the measurement of multiple-dose pharmacokinetics of cilansetron were collected up to 24 hours postdose on Day 5.

[2] = in vivo
Method: Time to reach steady state following dosing with cilansetron 2 mg TID has been evaluated in a study in 9 healthy male and female subjects.

[3] = test system: non-constipated IBS subjects; test: Study S241.2.112: Phase II dose-ranging efficacy; type: in vivo, human
Method: Study S241.2.112 was a Phase II, double-blind, placebo-controlled, randomized, multicenter parallel-group, dose-ranging study to investigate the efficacy and safety of cilansetron in non-constipated subjects with irritable bowel syndrome. The study was conducted in 51 study centers in the U.S. A total of at least 88 subjects were planned per treatment group evaluable for efficacy, in total 440 to complete the study; 975 subjects were screened; 490 were randomized and 481 analyzed for safety.
Diagnosis and main criteria for inclusion were IBS subjects satisfying the Rome criteria (1992) and minimum abdominal pain/discomfort, stool frequency and consistency determined during the run-in period. Subjects were treated with cilansetron 1 mg, 2 mg, 8 mg, and 16 mg tablets given orally TID or matching placebo tablets given orally TID for 12 weeks.
Efficacy was evaluated by weekly global questions concerning adequate relief of IBS symptoms (abdominal pain/discomfort, abnormal bowel habits). A responder is a subject who responded “Yes” at least 50% of the time after randomization, with a minimum treatment duration of four weeks.

CYP2C19 = details: hepatocytes
CYP3A5 = details: hepatocytes
[4] = test system: diarrhea-predominant IBS subjects; test: Study S241.3.009: interruption of activities assessment; type: in vivo, human; details: for Percentage of Subjects Who Worsened from Baseline: Interruption of Activities: S241.3.009, 2 mg TID, observed value
Description: Studies S24 1.3.OO6, S24 1.3.0 1 1, and S24 1.3.009 used the following efficacy measurements: • The subjects answered the following three questions with “yes” or “no” using a phone diary at the end of each week: • a) During the last week, did you experience adequate relief of your IBS symptoms, such as abdominal pain, abdominal discomfort, abnormal bowel habits? • b) During the last week, did you experience adequate relief of your abdominal pain and/or discomfort? • c) During the last week, did you experience adequate relief of your abnormal bowel habits? • The subjects rated the following symptoms using the phone diary at the end of each day: • abdominal pain/discomfort (five-point scale); • stool consistency (seven-point Bristol Stool Scale); • stool frequency (number of bowel movements each day); • urgency (five-point scale); • straining (yes or no); • feeling of incomplete defecation (yes or no); • bloating or feeling of abdominal distension (five-point scale). • In Studies S241 A006 and S241.3.009, subjects completed the IBS-QOL Survey at Baseline (Day 1) and at the end of treatment. In Study S24 1.3.0 1 1, subjects completed the IBS-QOL Survey at Baseline (Day 1), at the end of the three-month treatment period, and at the end of rerandomized treatment.
Other secondary efficacy parameters for all three studies included: • Responder rate for the weekly diary questions on adequate relief at each month, where a responder for a month (monthly responder) was defined as a subject who answered the weekly question with “yes” at least twice for that month. The responder rate was the percentage of responders within a treatment group. The all-month responder rate for the weekly diary questions on adequate relief was also evaluated, where an all-month responder was defined as a subject who answered the weekly question with “yes” at least twice for each month. The all-month responder rate was the percentage of all-month responders within a treatment group; • Adequate relief rate for the weekly diary questions was calculated for each subject as the number of weekly assessments with adequate relief (“yes”) divided by the total number of weekly assessments; • Percentage of subjects with adequate relief for the weekly diary questions at each week; • Daily diary questions regarding abdominal pain/discomfort (five-point scale), stool consistency (seven-point scale), stool frequency (number of bowel movements each day), straining (yes or no), urgency (five-point scale), feeling of incomplete evacuation (yes or no), and bloating or feeling of abdominal distention (five-point scale); • QOL data assessed by the IBS-QOL questionnaire; and • Question to determine the interruption of activities.

clinical [5] = type: in vitro ADME; details: both sexes, human, serum, % free in serum
Method: Steady state serum samples for measurement of cilansetron protein binding were collected at predose, and 1 and 1.5 hours postdose on Day 6.

clinical [6] = details: human, in vivo; for AUC: AUC (0-τ)
Method: Subjects were treated with a single oral dose of cilansetron 8 mg (tablet) on Day 1, followed by 8 mg TID for 5 days (Days 2-6) and a single 8 mg dose on the morning of Day 7. Young subjects ranged in age from 19-45 years, and elderly from 66-79 years. Serial blood samples were collected up to 24 hours postdose on Days 1 and 7, and cilansetron pharmacokinetic parameters were calculated. Doses on pharmacokinetic sampling days were administered under fasted conditions.
Young subjects ranged in age from 19-45 years, and elderly from 66-79 years. Serial blood samples were collected up to 24 hours postdose on Days 1 and 7, and cilansetron pharmacokinetic parameters were evaluated. Doses on pharmacokinetic sampling days were administered under fasted conditions.

[7] = test system: diarrhea-predominant IBS subjects; test: Study S241.3.009: safety; type: in vivo, human; parameters: Incidence of bilirubin increase: dose or concentration left out as unconfirmed; details: for Constipation: human, 26 weeks
Description: The primary efficacy parameter was the overall response rate for IBS symptoms, based on the weekly question concerning adequate relief of IBS symptoms (abdominal pain/discomfort, abnormal bowel habits) over the 26 weeks period. A responder was a subject who responded “yes” at least 50% of the time during his/her treatment period, with minimum treatment duration of four weeks. The two main secondary efficacy parameters were overall responder rate based on the weekly question on adequate relief of abdominal pain/discomfort and abnormal bowel habits during the 26-week treatment period. The onset of action of cilansetron was also examined using daily diary data (stool frequency, and ratings of urgency and severity) during the initial 8 weeks of trial participation. An additional key secondary efficacy parameter was the number of months (one month equals four weeks) up to six months (24-weeks) that a subject was a responder for IBS symptoms, where a responder was defined as a subject who answered the weekly question with “yes” at least twice for that month. The responder rate for the weekly diary questions on adequate relief at each month and all months, the adequate relief rate, the number of subjects with adequate relief by week, daily diary questions, IBS-QOL scores, and the interruption of activities were also assessed. Safety was evaluated by physical examination, ECG, vital signs, laboratory evaluations, concomitant medications, and AEs.

**Q.** Which results are given for `Cc1nccn1C[C@H]1CCc2c(c3cccc4c3n2CCC4)C1=O` [Cilansetron, (R)-(−)-4,5,6,8,9,10-hexahydro-10-[(2-methyl-1H-imidazol-1-yl)methyl]-11H-pyrido-[3,2,1-jk]-carbazol-11-one]?
**A.** Cmax (clinical [1]; Cmax): 76.9 ng/mL; Tmax (clinical [1]; Tmax): 1 h; Steady state achieved by [2]: third day; Responder rate better than placebo ([3]; 1 mg TID): 22%; Responder rate better than placebo ([3]; 1 mg, females): 26%; Responder rate higher than placebo ([3]; 2 mg TID): 13%; Responder rate higher than placebo ([3]; 8 mg TID): 15%; Responder rate better than placebo ([3]; 16 mg TID): 22%; Increase of CYP2C19 (CYP2C19): about half of that caused by phenobarbital; CYP3A5 mRNA (CYP3A5): doubled; Subjects “not at all or rarely” bothered by IBS symptoms ([4]; Endpoint): 54%; Subjects worsened from Baseline, interruption of activities ([4]; Month 1): 5%; Percentage of Subjects Who Worsened from Baseline: Interruption of Activities ([4]; Month 1): 5%; Percentage of Subjects Who Worsened from Baseline: Interruption of Activities ([4]; Month 3): 3%; Percentage of Subjects Who Worsened from Baseline: Interruption of Activities ([4]; Month 6): 2%; fraction unbound (clinical [5]): 0.055; AUC(0-inf) (clinical [6]; female, 8 mg): 289 ng·h/mL; AUC (clinical [6]; female, 8 mg): 247 ng·h/mL; AUC(0-inf) (clinical [6]; female): 178 ng·h/mL; AUC (clinical [6]; female): 263 ng·h/mL; Cmax (clinical [6]; female): 95.1 ng/mL; Tmax (clinical [6]; female): 0.88 h; AUC(0-inf) (clinical [6]; male): 228 ng·h/mL; AUC (clinical [6]; male): 196 ng·h/mL; Cmax (clinical [6]; male): 58.8 ng/mL; Tmax (clinical [6]; male): 1.31 h; Vd/F (clinical [6]; male, Vz/F): 243 L; Number of subjects who died ([7]; 2 mg TID, 401 randomized, S241.3.009): 0 n (%); Constipation ([7]; female, in vivo): 17%; Abdominal pain aggravated ([7]; in vivo): five; Incidence of bilirubin increase ([7]; in vivo): 8%; Rectal hemorrhage ([7]; in vivo): three; Suspected ischemic colitis ([7]; in vivo): three; Constipation ([7]; male, in vivo): 7%
